According to PMC10589286, “Insights into the missing apiosylation step in flavonoid apiosides biosynthesis of Leguminosae plants” (Nature Communications, 2023):

Tests used:
[1] = molecular target: T1, GuApiGT (Glycyrrhiza uralensis, UniProt A0AA51Z2W4, DEL371-371/H373Q); experiment: HPLC/MS conversion; type: biochemical; conditions: 0.5 mM UDP-Xyl, acceptor isoliquiritin (2) 0.1 mM, pH 8.0, 37 °C, 3 h; printed S371/H373Q (S371 deleted)
T1 construct: full length, 454 aa (ORF 1365 bp), pET-28a(+) His-tagged, E. coli BL21(DE3), nickel-purified

[2] = molecular target: T2, SsApiGT (Spatholobus suberectus, UniProt A0AA51YHU4); experiment: enzyme catalysis, LC/MS; type: biochemical; conditions: sugar donor supplied by UAXS system; acceptor only in figure
T2 construct: full length, synthesized gene, pET-28a(+), E. coli BL21(DE3), nickel-purified
T2 sequence (A0AA51YHU4 1-448): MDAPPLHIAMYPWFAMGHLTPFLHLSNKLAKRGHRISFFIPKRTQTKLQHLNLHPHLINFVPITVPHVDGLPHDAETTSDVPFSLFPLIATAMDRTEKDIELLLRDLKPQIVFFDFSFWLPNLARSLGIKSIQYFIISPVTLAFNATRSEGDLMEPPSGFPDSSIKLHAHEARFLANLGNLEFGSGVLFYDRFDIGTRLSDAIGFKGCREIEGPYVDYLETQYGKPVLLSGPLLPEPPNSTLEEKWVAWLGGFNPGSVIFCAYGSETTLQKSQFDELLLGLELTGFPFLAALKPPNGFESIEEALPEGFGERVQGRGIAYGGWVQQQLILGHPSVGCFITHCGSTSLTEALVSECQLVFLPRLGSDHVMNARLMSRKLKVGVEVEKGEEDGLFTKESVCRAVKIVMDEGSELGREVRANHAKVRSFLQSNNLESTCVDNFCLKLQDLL

[3] = molecular target: T3, GiApiGT (Glycyrrhiza inflata, UniProt A0AA51YKD5); experiment: enzyme catalysis, LC/MS; type: biochemical; conditions: sugar donor supplied by UAXS system; acceptor only in figure
T3 construct: full length, pET-28a(+), E. coli BL21(DE3), nickel-purified
T3 sequence (A0AA51YKD5 1-454): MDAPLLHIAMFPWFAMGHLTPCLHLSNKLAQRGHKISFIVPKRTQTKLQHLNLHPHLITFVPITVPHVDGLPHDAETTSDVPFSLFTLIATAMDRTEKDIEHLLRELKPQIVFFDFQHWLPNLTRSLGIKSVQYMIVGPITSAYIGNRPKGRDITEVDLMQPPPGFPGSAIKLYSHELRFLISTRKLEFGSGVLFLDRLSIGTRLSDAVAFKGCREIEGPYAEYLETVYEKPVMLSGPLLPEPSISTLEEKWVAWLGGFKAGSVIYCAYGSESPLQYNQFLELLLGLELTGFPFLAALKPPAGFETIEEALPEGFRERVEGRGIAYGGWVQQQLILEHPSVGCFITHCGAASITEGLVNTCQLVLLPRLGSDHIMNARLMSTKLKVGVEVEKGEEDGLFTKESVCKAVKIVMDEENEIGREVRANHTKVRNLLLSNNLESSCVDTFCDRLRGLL

[4] = molecular target: T4, GgApiGT (Glycyrrhiza glabra, UniProt A0AA51YKR8); experiment: enzyme catalysis, LC/MS; type: biochemical; conditions: sugar donor supplied by UAXS system; acceptor only in figure
T4 construct: full length, pET-28a(+), E. coli BL21(DE3), nickel-purified
T4 sequence (A0AA51YKR8 1-454): T3 sequence (A0AA51YKD5 1-454)

[5] = molecular target: T5, PtApiGT (Pueraria montana, UniProt A0AA51YHU3); experiment: enzyme catalysis, LC/MS; type: biochemical; conditions: sugar donor supplied by UAXS system; acceptor only in figure
T5 construct: full length, pET-28a(+), E. coli BL21(DE3), nickel-purified
T5 sequence (A0AA51YHU3 1-457): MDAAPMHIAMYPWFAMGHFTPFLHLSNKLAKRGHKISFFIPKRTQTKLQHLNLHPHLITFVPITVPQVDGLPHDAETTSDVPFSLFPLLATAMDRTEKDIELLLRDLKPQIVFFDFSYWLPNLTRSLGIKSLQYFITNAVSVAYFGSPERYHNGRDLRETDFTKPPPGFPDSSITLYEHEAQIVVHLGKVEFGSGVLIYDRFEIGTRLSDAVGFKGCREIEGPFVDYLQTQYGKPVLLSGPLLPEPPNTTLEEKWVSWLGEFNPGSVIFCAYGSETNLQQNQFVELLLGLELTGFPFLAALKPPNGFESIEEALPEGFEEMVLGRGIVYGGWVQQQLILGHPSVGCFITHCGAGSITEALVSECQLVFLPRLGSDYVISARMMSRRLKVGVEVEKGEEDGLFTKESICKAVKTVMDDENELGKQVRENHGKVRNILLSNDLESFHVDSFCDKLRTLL

[6] = substrate: O=C(/C=C/c1ccc(O[C@@H]2O[C@H](CO)[C@@H](O)[C@H](O)[C@H]2O)cc1)c1ccc(O)cc1O; experiment: HPLC, Michaelis-Menten fit; type: biochemical, Glycyrrhiza uralensis; conditions: 480 µmol/L saturated UDP-apiose, pH 8.0 phosphate, 37 °C, 15 min

T1 sequence (A0AA51Z2W4 entry or part of it DEL371-371/H373Q): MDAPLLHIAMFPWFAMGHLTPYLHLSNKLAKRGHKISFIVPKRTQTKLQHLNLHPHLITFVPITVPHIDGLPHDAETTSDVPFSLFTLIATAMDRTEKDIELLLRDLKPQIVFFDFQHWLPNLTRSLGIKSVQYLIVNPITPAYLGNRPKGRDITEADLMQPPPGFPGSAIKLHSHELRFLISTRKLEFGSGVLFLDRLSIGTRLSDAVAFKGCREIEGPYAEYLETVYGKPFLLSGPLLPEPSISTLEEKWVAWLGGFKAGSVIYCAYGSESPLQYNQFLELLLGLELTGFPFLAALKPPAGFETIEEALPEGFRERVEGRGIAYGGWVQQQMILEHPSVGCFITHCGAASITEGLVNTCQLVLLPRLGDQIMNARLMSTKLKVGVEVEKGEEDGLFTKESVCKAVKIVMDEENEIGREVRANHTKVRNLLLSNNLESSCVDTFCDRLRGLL

Molecule: O=c1ccn([C@@H]2O[C@H](COP(=O)(O)OP(=O)(O)O[C@H]3OC[C@@H](O)[C@H](O)[C@H]3O)[C@@H](O)[C@H]2O)c(=O)[nH]1 [UDP-Xyl]
- HPLC/MS conversion [1]: the S371/H373Q mutant could accept UDP-Xyl as sugar donor

Molecule: O=c1ccn([C@@H]2O[C@H](COP(=O)(O)OP(=O)(O)O[C@H]3OC[C@](O)(CO)[C@H]3O)[C@@H](O)[C@H]2O)c(=O)[nH]1 [UDP-Api]
- enzyme catalysis, LC/MS [2]: identified them as apiosyltransferases by enzyme catalysis reactions
- enzyme catalysis, LC/MS [3]: identified them as apiosyltransferases by enzyme catalysis reactions
- enzyme catalysis, LC/MS [4]: identified them as apiosyltransferases by enzyme catalysis reactions
- enzyme catalysis, LC/MS [5]: identified them as apiosyltransferases by enzyme catalysis reactions

B1: GuApiGT (Glycyrrhiza uralensis) (protein)
chain: MDAPLLHIAMFPWFAMGHLTPYLHLSNKLAKRGHKISFIVPKRTQTKLQHLNLHPHLITFVPITVPHIDGLPHDAETTSDVPFSLFTLIATAMDRTEKDIELLLRDLKPQIVFFDFQHWLPNLTRSLGIKSVQYLIVNPITPAYLGNRPKGRDITEADLMQPPPGFPGSAIKLHSHELRFLISTRKLEFGSGVLFLDRLSIGTRLSDAVAFKGCREIEGPYAEYLETVYGKPFLLSGPLLPEPSISTLEEKWVAWLGGFKAGSVIYCAYGSESPLQYNQFLELLLGLELTGFPFLAALKPPAGFETIEEALPEGFRERVEGRGIAYGGWVQQQMILEHPSVGCFITHCGAASITEGLVNTCQLVLLPRLGSDHIMNARLMSTKLKVGVEVEKGEEDGLFTKESVCKAVKIVMDEENEIGREVRANHTKVRNLLLSNNLESSCVDTFCDRLRGLL
notes: full length, 454 aa (ORF 1365 bp), pET-28a(+) His-tagged, E. coli BL21(DE3), nickel-purified
- Km [6]: 2.59 ± 0.23 µM
- kcat [6]: 0.11 s⁻¹
